Assay results taken from PMC9317327, “Functional Characterization, Antimicrobial Effects, and Potential Antibacterial Mechanisms of NpHM4, a Derived Peptide of Nautilus pompilius Hemocyanin” (Marine Drugs, 2022).
≈ marks a conversion by molar mass, not a printed value. Where a SMILES comes first, the peptide text is derived from it.

Key:
[1] = test system: Vibrio alginolyticus (A056); type: cell-based; details: 2 h
[2] = test system: Vibrio parahaemolyticus 2013V-1174; type: cell-based; details: 2 h
[3] = test system: Vibrio parahaemolyticus 2013V-1174; type: cell-based; details: 2 h, pH 7.2
Description: (§1) The antimicrobial activity of the peptides was determined against Gram-negative bacteria, including V. alginolyticus (A056), E. coli (DH5α), and V. parahaemolyticus (2013V-1174), which were obtained from the South China Sea Institute of Oceanology, Chinese Academy of Sciences. The activity was also tested against the Gram-positive bacteria S. aureus ATCC 25923 and B. subtilis ATCC 6051. To assess the antimicrobial activities of the peptides, bacterial cells were cultured to the logarithmic growth phase and then diluted to 10^6–1.5 × 10^7 CFU/mL with PBS (0.01 M, pH 7.2). Equal volumes of serially diluted peptides, with concentrations ranging from 30 to 450 μM in PBS, and bacteria suspension were mixed and incubated at room temperature for 2 h, respectively. Then, 6 μL of each serially diluted mixture was plated on sterile 12-well agar plates, followed by incubation for 11 to 12 h, and the colonies were assessed to determine the MICs and MBCs. The MICs were expressed (in µM) as an [a]–[b] concentration interval, where [a] is the highest peptide concentration at which bacteria were growing and [b] is the lowest concentration that caused 100% growth inhibition. Cultures without peptides were employed as controls. All the tests were performed in triplicate and repeated three times.

[4] = test system: Staphylococcus aureus ATCC 25923; type: cell-based; details: ATCC 25923, 2 h, pH 7.2
Description: as §1

[5] = test system: Vibrio alginolyticus (A056); type: cell-based; details: 2 h, pH 7.2
Description: as §1

[6] = test system: Bacillus subtilis ATCC 6051; type: cell-based; details: ATCC 6051, 2 h, pH 7.2
Description: as §1

[7] = test system: Escherichia coli (DH5α); type: cell-based; details: DH5α, 2 h, pH 7.2
Description: as §1

[8] = test system: E. coli; details: cited from earlier work
Description: In order to explore the antibacterial activity of the six predicted AMPs, the minimal inhibitory concentrations (MICs) and the minimal bactericidal concentrations (MBCs) of chemically synthesized NpHN1–NpHN6 peptides were measured against Gram-negative bacteria (Vibrio alginolyticus and Escherichia coli). […] The GR ...

[9] = test system: Staphylococcus aureus; details: cited from earlier work
[10] = test system: Bacillus megaterium; details: cited from earlier work

CC[C@H](C)[C@H](NC(=O)CNC(=O)[C@H](Cc1c[nH]cn1)NC(=O)[C@H](CCCNC(=N)N)NC(=O)[C@H](CC(C)C)NC(=O)[C@H](Cc1ccccc1)NC(=O)CNC(=O)[C@H](C)NC(=O)[C@H](Cc1ccccc1)NC(=O)[C@@H](NC(=O)[C@@H](N)CCCNC(=N)N)C(C)C)C(=O)N[C@@H](CCCCN)C(=O)N[C@@H](CCCNC(=N)N)C(=O)N[C@@H](CO)C(=O)N[C@@H](CCCNC(=N)N)C(=O)O [NpHM4] (H-RVFAGFLRHGIKRSR-OH)
IC50 [1]: 12.2 µM
IC50 [2]: 32.1 µM
MBC [3]: 50 µM (≈ 90 µg/mL)
MIC [3]: 15 to 45 µM
MBC [4]: >50 µM
MIC [4]: >50 µM
MBC [5]: 30 µM (≈ 54 µg/mL)
MIC [5]: 5 to 25 µM
MBC [6]: >50 µM
MIC [6]: >50 µM
MBC [7]: >150 µM
MIC [7]: 50 to 150 µM

GSTSFHLIYNKWFAVKRRRKR [GR21]
MBC [8]: below 25 μM
MBC [9]: below 25 μM
MBC [10]: below 25 μM
